Data from article PMC3400123 (Bioorganic & medicinal chemistry, 2012).

Assays:
MDCKII-MDR1 cells = test: Transport and cell association across MDCKII-MDR1 monolayers; type: in vitro ADME; settings: for PAB (+ inh): absorptive direction; for PAB (+ inh) / PBA (+ inh): with 5 × 10^−6 M LSN 335984, 5 × 10^−6 M dye, BSA; for Ratio (+/− inh) for % cell associated dye: inhibited / uninhibited pump; for PBA (+ inh) / PBA: secretory direction; for PBA: no inhibitor, 5 × 10^−6 M dye, 4.3 mg mL^−1 BSA
human P-gp-His10 = human P-gp-His10 (Homo sapiens, UniProt P08183); test: Stimulation of ATPase activity of isolated human P-gp-His10; settings: read-out: KM (concentration of compound required to achieve 50% maximal stimulation); isolated human P-gp-His10 in sheep brain phosphatidylethanolamine
Sequence of human P-gp-His10 (P08183 whole entry): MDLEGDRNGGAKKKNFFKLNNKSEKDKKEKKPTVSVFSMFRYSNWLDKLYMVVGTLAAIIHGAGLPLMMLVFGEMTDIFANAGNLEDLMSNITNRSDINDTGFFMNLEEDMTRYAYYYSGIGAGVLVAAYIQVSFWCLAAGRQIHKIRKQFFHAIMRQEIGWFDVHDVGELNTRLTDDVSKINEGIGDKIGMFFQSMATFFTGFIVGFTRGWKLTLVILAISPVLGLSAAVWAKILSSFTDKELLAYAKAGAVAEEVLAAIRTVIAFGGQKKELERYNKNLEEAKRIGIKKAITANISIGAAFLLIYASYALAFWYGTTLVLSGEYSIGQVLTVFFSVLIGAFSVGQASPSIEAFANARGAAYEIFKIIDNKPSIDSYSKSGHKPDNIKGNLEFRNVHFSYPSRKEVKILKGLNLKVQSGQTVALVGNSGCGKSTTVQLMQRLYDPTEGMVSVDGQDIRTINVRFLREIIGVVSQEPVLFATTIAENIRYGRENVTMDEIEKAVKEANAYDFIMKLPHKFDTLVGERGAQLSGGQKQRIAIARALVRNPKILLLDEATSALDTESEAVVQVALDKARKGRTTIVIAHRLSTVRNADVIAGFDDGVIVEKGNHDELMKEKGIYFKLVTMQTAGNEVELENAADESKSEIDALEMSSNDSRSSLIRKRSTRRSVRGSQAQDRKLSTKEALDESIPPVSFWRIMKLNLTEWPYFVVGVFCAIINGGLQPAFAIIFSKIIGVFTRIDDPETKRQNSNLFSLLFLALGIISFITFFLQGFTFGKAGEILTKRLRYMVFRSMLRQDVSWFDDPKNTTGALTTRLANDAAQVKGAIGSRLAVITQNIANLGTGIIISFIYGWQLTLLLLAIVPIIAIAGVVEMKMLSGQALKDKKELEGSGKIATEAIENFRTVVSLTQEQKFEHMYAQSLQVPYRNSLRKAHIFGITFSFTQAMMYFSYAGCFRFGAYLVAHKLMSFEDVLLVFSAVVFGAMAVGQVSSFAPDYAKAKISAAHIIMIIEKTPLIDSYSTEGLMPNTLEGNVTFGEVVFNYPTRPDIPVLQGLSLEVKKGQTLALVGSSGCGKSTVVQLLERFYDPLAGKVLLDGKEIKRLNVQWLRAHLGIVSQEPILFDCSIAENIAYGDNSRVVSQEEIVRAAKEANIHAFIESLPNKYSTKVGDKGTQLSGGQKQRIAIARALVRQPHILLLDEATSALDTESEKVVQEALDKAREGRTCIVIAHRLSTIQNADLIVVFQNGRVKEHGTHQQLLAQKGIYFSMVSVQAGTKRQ

SMILES | PAB (+ inh) (MDCKII-MDR1 cells) | Ratio (+/− inh) for % cell associated dye (MDCKII-MDR1 cells) | PBA (+ inh) (MDCKII-MDR1 cells) | Km (human P-gp-His10) | PBA (MDCKII-MDR1 cells)
CCN(CC)C(=O)c1ccc(-c2c3ccc(N(C)C)cc3[s+]c3c4c5c(cc23)CCCN5CCC4)s1.F[P-](F)(F)(F)(F)F [Compound 5, 12-(dimethylamino)-2,3,6,7-tetrahydro-9-(5-(diethylcarbamoyl)thiophen-2-yl)-1H,5H-thioxantheno[2,3,4-ij]quinolizin-14-ium hexafluorophosphate] | ≤ 1 ≤ 1 10^−9 m s^−1 | 3.3-6.1 | 17.0 ± 0.4 10^−9 m s^−1 | 3.6 ± 0.4 µM | 210 ± 22 10^−9 m s^−1
CCN(CC)C(=S)c1ccc(-c2c3ccc(N(C)C)cc3[s+]c3c4c5c(cc23)CCCN5CCC4)s1.F[P-](F)(F)(F)(F)F [Compound 6, 12-(Dimethylamino)-2,3,6,7-tetrahydro-9-(5-(diethylcarbamothioyl)-thiophen-2-yl)-1H,5H-thioxantheno[2,3,4-ij]quinolizin-14-ium hexafluorophosphate] | ≤ 1 ≤ 1 10^−9 m s^−1 | 1.2-2.1 | 2.7 ± 0.1 10^−9 m s^−1 | 2.3 ± 0.4 µM | 65.0 ± 1.5 10^−9 m s^−1
CCN(CC)C(=O)c1ccc(-c2c3ccc(N(C)C)cc3[s+]c3cc(N(C)C)ccc23)s1 [Compound 1, 3,6-bis(dimethylamino)-9-(5-(diethylcarbamoyl)thiophen-2-yl)thioxan-thylium hexafluorophosphate] |  |  |  | 5.7 ± 1 µM | 
CCN(CC)C(=S)c1ccc(-c2c3ccc(N(C)C)cc3[s+]c3cc(N(C)C)ccc23)s1.F[P-](F)(F)(F)(F)F [Compound 2, 3,6-bis(dimethylamino)-9-(5-(diethylcarbamothioyl)thiophen-2-yl)thioxanthylium hexafluorophosphate] | ≤ 1 ≤ 1 10^−9 m s^−1 |  |  | 5.8 ± 0.6 µM | 210 ± 17 10^−9 m s^−1

The remaining lines, values ahead:

PAB (+ inh) (MDCKII-MDR1 cells) | Ratio (+/− inh) for % cell associated dye (MDCKII-MDR1 cells) | PBA (+ inh) (MDCKII-MDR1 cells) | Km (human P-gp-His10) | PBA (MDCKII-MDR1 cells) | SMILES
≤ 1 ≤ 1 10^−9 m s^−1 | 1.2-2.1 | 1.0 ± 0.1 10^−9 m s^−1 | 3.1 ± 0.7 µM |  | CCN(CC)C(=S)c1ccc(-[c+]2c3ccc(N(C)C)cc3sc3cc4c(cc32)C(C)(C)CCN4C)s1.F[P-](F)(F)(F)(F)F [Compound 10, 6-(5-(diethylcarbamothioyl)thiophen-2-yl)-9-(dimethylamino)-1,4,4-trimethyl-2,3,4,6-tetrahydro-1H-thiochromeno[3,2-g]quinolin-6-ylium hexafluorophosphate]
≤ 1 ≤ 1 10^−9 m s^−1 | 3.3-6.1 | 27.0 ± 0.3 10^−9 m s^−1 | 2.2 ± 1 µM | 370 ± 17 10^−9 m s^−1 | CCN(CC)C(=O)c1ccc(-[c+]2c3ccc(N(C)C)cc3sc3cc4c(cc32)C(C)(C)CCN4C)s1.F[P-](F)(F)(F)(F)F [Compound 9, 6-(5-(diethylcarbamoyl)thiophen-2-yl)-9-(dimethylamino)-1,4,4-trimethyl-2,3,4,6-tetrahydro-1H-thiochromeno[3,2-g]quinolin-6-ylium hexafluorophosphate]
≤ 1 ≤ 1 10^−9 m s^−1 | 3.3-6.1 | 8.1 ± 0.1 10^−9 m s^−1 | 1.9 ± 0.4 µM | 220 ± 29 10^−9 m s^−1 | CN(C)c1ccc2c(-c3ccc(C(=O)N4CCCCC4)s3)c3cc4c5c(c3[s+]c2c1)CCCN5CCC4.F[P-](F)(F)(F)(F)F [Compound 7, 12-(dimethylamino)-2,3,6,7-tetrahydro-9-(N-piperidyl-2-thienyl-5-carboxamido)-1H,5H-thioxantheno[2,3,4-ij]quinolizin-14-ium hexafluorophosphate]
